How the values were obtained:
Test in all cases: relative viability (nuclei count vs DMSO), 5 days (fraction); higher = more cells survive
[1] = compound: COc1cc2ncn(-c3cc(OCc4ccccc4C(F)(F)F)c(C(N)=O)s3)c2cc1OC + CC(C)C[C@H](NC(=O)[C@H](Cc1ccccc1)NC(=O)c1cnccn1)B(O)O [Bortezomib] (partner 0.002 µM)
Procedure, shortened: (§1)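 After 5 days of treatment, lung cancer cells in 1536-well plates were fixed and stained in a single step (final 0.05% Triton X-100, 1% formaldehyde, 1 ug/ml Hoechst) and their nuclei counted on 4× images. Treatment had been applied by pin tool the day after seeding as one drug alone or as a fixed anchor-drug dose with five library-drug doses (not always all listed) in √10 steps. Relative viability is the nuclei count of treated wells divided by that of vehicle wells, and values are medians of duplicate plates.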

[2] = compound: COc1cc2ncn(-c3cc(OCc4ccccc4C(F)(F)F)c(C(N)=O)s3)c2cc1OC + CS(=O)(=O)N1CCN(Cc2cc3nc(-c4cccc5[nH]ncc45)nc(N4CCOCC4)c3s2)CC1 [Pictilisib] (partner 1 µM)
Procedure, shortened: as §1

[3] = compound: COc1cc2ncn(-c3cc(OCc4ccccc4C(F)(F)F)c(C(N)=O)s3)c2cc1OC + COc1cc2c(Oc3ccc(NC(=O)C4(C(=O)Nc5ccc(F)cc5)CC4)cc3F)ccnc2cc1OCCCN1CCOCC1 [Foretinib] (partner 0.25 µM)
Procedure, shortened: as §1

[4] = compound: COc1cc2ncn(-c3cc(OCc4ccccc4C(F)(F)F)c(C(N)=O)s3)c2cc1OC + CC(=O)c1c(C)c2cnc(Nc3ccc(N4CCNCC4)cn3)nc2n(C2CCCC2)c1=O [Palbociclib] (partner 0.5 µM)
Procedure, shortened: as §1

Cell Line	relative viability ([1]; first compound 0.05 µM)	relative viability ([1]; first compound 0.1581 µM)	relative viability ([1]; first compound 0.5 µM)	relative viability ([1]; first compound 1.581 µM)	relative viability ([1]; first compound 5 µM)	relative viability ([2]; first compound 0.05 µM)	relative viability ([2]; first compound 0.1581 µM)	relative viability ([2]; first compound 0.5 µM)	relative viability ([2]; first compound 1.581 µM)	relative viability ([2]; first compound 5 µM)	relative viability ([3]; first compound 0.05 µM)	relative viability ([3]; first compound 0.1581 µM)	relative viability ([3]; first compound 0.5 µM)	relative viability ([3]; first compound 1.581 µM)	relative viability ([3]; first compound 5 µM)	relative viability ([4]; first compound 0.05 µM)	relative viability ([4]; first compound 0.1581 µM)	relative viability ([4]; first compound 0.5 µM)	relative viability ([4]; first compound 1.581 µM)	relative viability ([4]; first compound 5 µM)
201T	1.12	1.13	1.12	0.902	0.365	0.717	0.743	0.682	0.319	0.247	1.06	1.09	1.07	0.414	0.165	0.363	0.38	0.335	0.349	0.28
A-427	1.05	1.05	0.752	0.258	0.251	0.76	0.527	0.729	0.262	0.117	1.13	0.923	0.81	0.398	0.137	0.553	0.479	0.502	0.331	0.236
ABC-1	0.304	0.294	0.281	0.242	0.233	0.645	0.791	0.634	0.284	0.229	1.2	1.08	0.758	0.225	0.239	0.665	0.777	0.748	0.583	0.37
BEN	0.911	0.476	0.801	0.253	0.244	0.653	0.557	0.471	0.223	0.233	0.559	0.557	0.623	0.271	0.307	0.5	0.455	0.471	0.45	0.437
CAL-12T	0.944	0.821	0.608	0.242	0.199	0.351	0.389	0.323	0.186	0.177	0.981	0.974	0.907	0.193	0.216	0.411	0.422	0.381	0.187	0.148
COR-L23	0.937	0.933	0.689	0.126	0.111	0.876	0.9	0.533	0.0929	0.0905	0.94	1.04	0.663	0.158	0.118	0.27	0.335	0.22	0.119	0.111
COR-L 105	0.727	0.763	0.529	0.271	0.269	0.475	0.386	0.267	0.279	0.259	1.2	1.2	1.17	0.391	0.302	0.396	0.4	0.424	0.325	0.321
Calu-6	0.805	0.69	0.203	0.116	0.117	0.821	0.735	0.221	0.0967	0.102	0.791	0.612	0.203	0.0691	0.0725					
ChaGo-K-1	0.98	0.727	1.03	0.427	0.272	0.676	0.419	0.594	0.322	0.248	0.915	0.89	0.71	0.266	0.172	0.948	0.878	0.649	0.247	0.147
EKVX	1.1	0.773	0.991	0.195	0.487	0.42	0.516	0.427	0.262	0.291	0.779	0.516	0.603		0.46	0.362	0.438	0.371	0.248	0.219
EMC-BAC-2	1.19	1.08	0.925	0.416	0.278	0.581	0.46	0.526	0.352	0.139	1.11	1.01	0.815	0.309	0.212	0.478	0.512	0.476	0.376	0.272
EPLC-272H	1.05	0.82	0.567	0.0851	0.135	0.354	0.202	0.287	0.173	0.135		0.338	0.102	0.102	0.104	0.273	0.322	0.222	0.144	0.226
H3255	0.793	0.746	0.708	0.363	0.242	0.458	0.467	0.247	0.21	0.187	0.876	1.06	0.714		0.542	0.315	0.285	0.306	0.256	0.264
HARA	1.09	0.986	1.02	0.215	0.0851	0.443	0.38	0.274	0.0824	0.0556	1.03	0.886	0.734	0.11	0.0673	0.224	0.251	0.234	0.173	0.127
